In US12168654B2, “Pyrimidine derivative containing one deuterium atom and preparation process and use thereof” (Guangdong Lewwin Pharmaceutical Research Institute Co., Ltd., priority 2018, dated 2024):
Where two headings read alike, the source gives them in different places.

Legend:
[1] = Test on the stability of rat liver microsomes; conditions: for half-life: microsomes
Description: Firstly, a SD rat (200-300 g) was fasted for 12 hours, and then infused rapidly with normal saline. Liver was taken out from the rat, from which liver microsomes were extracted at 0-4° C., ready for use after calibrating the concentration of liver microsomes. At 37° C., liver microsomes were incubated in combination with a certain concentration of compounds and auxiliary reagents for a period of time. The reaction was then quenched with acetonitrile.

tumor in naked mice = assay: Anti-tumor test in naked mice; format: in vivo; conditions: once a day for 2 weeks
[2] = tested on: human highly metastatic hepatoma cells MHCC-97H; assay: MTT anti-tumor cell proliferation test; format: cell-based; conditions: for IC50: Homo sapiens, MHCC97H, MTT
Description: The novel pyrimidine derivatives of the invention were tested on their anti-tumor activities. Human highly metastatic hepatoma cells MHCC-97H were employed in the MTT process to evaluate the anti-tumor cell proliferation activities. The specific operation steps were as below: tumor cells were inoculated in a 96-well plate by a certain number of cells, at a cell density of 5×10^3-10×10^3/well. They were incubated in an incubator at 37° C. and a carbon dioxide concentration of 5% overnight, into which was then added the compound samples to be tested. After incubation for 72 hours, MTT was added to keep on for 4 hours, and dissolved with the addition of DMSO with shaking, and then detected with a microplate reader (570 nm).
(1) The anti-tumor cell activities of (R)-1D228 are tested. With Tepotinib and (R)-4D288 as the control, human highly metastatic hepatoma cell MHCC-97Hwas selected to evaluate the antitumor cell proliferative activities through the MTT process. The specific operation steps were as below: the tumor cells were inoculated in a 96-well culture plate following a certain number of cells, the cell density was 5×103-10×10^3/well. After cultivation in an incubator at 37° C. and at a CO2 concentration of 5% overnight, the compound samples to test were added. After cultivation for 72 hours, MTT was added to continue the cultivation for 4 hours. DMSO was then added to dissolve with stirring, and detected with a microplate reader (570 nm).

[3] = Body weights of animals during administration; format: in vivo, naked mice; conditions: 8 mg/kg, in g (unit assumed)
Excerpt: The body weights of animals in each group during administration are shown in FIG. 9 and Table 7, showing that there were no significant changes in the body weights of mice and there were not abnormal behaviors of mice during administration.

[4] = Pharmacokinetic properties in mice (IV and PO); conditions: in vivo; for AUC(0-inf) / clearance / half-life / bioavailability: Sprague-Dawley (SD); for Vd / Cmax / Tmax: Sprague-Dawley
[5] = incubation 72 hours, Table 1, read-out: Human highly metastatic hepatoma cell MHCC-97H (μM), median inhibitory concentration IC50
[6] = cultivation 72 hours, Table 4, read-out: Human highly metastatic hepatoma cell MHCC-97H (μM), inhibitory activity

SMILES: C[C@]12CC[C@H]3[C@@H](CCC4=CC(=O)CC[C@@]43C)[C@@H]1CC[C@@H]2O [testosterone, reference compound]
- T1/2 (metabolic half-life in liver microsomes) ([1]; rat liver microsomes, 37° C.): 2.3 min

SMILES: [2H][C@@](C)(c1cccc(-c2ncc(OCC3CCN(C)CC3)cn2)c1)n1nc(-c2cccc(C#N)c2)ccc1=O [(R)-1D228]
- Relative tumor proliferation rate T/C (%) (tumor in naked mice; 4 mg/kg intragastric): 1.78%
- Tumor inhibition rate (%) (tumor in naked mice; 4 mg/kg intragastric): 98.3%
- Tumor weights (tumor in naked mice; 4 mg/kg intragastric): 0.011 ± 0.006
- Relative tumor proliferation rate T/C (%) (tumor in naked mice; 8 mg/kg intragastric): 1.17%
- Tumor inhibition rate (%) (tumor in naked mice; 8 mg/kg intragastric): 98.6%
- Tumor weights (tumor in naked mice; 8 mg/kg intragastric): 0.009 ± 0.007

SMILES: CC(c1cccc(-c2ncc(OCCCN(C)C)cn2)c1)n1nc(-c2cccc(C#N)c2)ccc1=O (centres unmarked) [Compound 1]
- IC50 [2, 5]: 0.0476 µM

SMILES: C[C@@H](c1cccc(-c2ncc(SCCCN(C)C)cn2)c1)n1nc(-c2cccc(C#N)c2)ccc1=O [Compound 9]
- IC50 [2, 5]: 0.189 µM

SMILES: [2H]C([2H])([2H])[C@]([2H])(c1cccc(-c2ncc(OCC3CCN(C)CC3)cn2)c1)n1nc(-c2cccc(C#N)c2)ccc1=O [Compound 2]
- IC50 [2, 6]: 0.0037 µM

SMILES: C[C@@H](c1cccc(-c2ncc(OCC3CCN(C)CC3)cn2)c1)n1nc(-c2cccc(C#N)c2)ccc1=O [(S)-5b]
- IC50 [2, 5]: 0.118 µM

SMILES: C[C@H](c1cccc(-c2ncc([Se]CCCN(C)C)cn2)c1)n1nc(-c2cccc(C#N)c2)ccc1=O [Compound 11]
- IC50 [2, 5]: 0.0117 µM

SMILES: CC(c1cccc(-c2ncc(OCC3CCN(C)CC3)cn2)c1)n1nc(-c2cccc(C#N)c2)ccc1=O (racemic) [(±)-5b]
- IC50 [2, 5]: 0.0353 µM

SMILES: C[C@@H](c1cccc(-c2ncc(OCCCN(C)C)cn2)c1)n1nc(-c2cccc(C#N)c2)ccc1=O [Compound 3]
- IC50 [2, 5]: 1.04 µM

SMILES: [2H]C([2H])([2H])[C@H](c1cccc(-c2ncc(OCC3CCN(C)CC3)cn2)c1)n1nc(-c2cccc(C#N)c2)ccc1=O [Compound 13]
- IC50 [2, 5]: 0.0035 µM

SMILES: C[C@H](c1cccc(-c2ncc(OCCCN(C)C)cn2)c1)n1nc(-c2cccc(C#N)c2)ccc1=O [Compound 2]
- IC50 [2, 5]: 0.014 µM

SMILES: CC(c1cccc(-c2ncc(SCCCN(C)C)cn2)c1)n1nc(-c2cccc(C#N)c2)ccc1=O (centres unmarked) [Compound 7]
- IC50 [2, 5]: 0.0272 µM

SMILES: [2H]C([2H])([2H])[C@]([2H])(c1cccc(-c2ncc(OCC3CCN(C)CC3)cn2)c1)n1nc(-c2cccc(C#N)c2)ccc1=O [Compound 14]
- IC50 [2, 5]: 0.0037 µM

SMILES: CN1CCC(COc2cnc(-c3cccc(Cn4nc(-c5cccc(C#N)c5)ccc4=O)c3)nc2)CC1 [Tepotinib, reference compound]
- body weights D 0 ([3]; D 0): 24.9 ± 1.0
- body weights D 3 ([3]; D 3): 25.1 ± 1.1
- body weights D 6 ([3]; D 6): 25.3 ± 1.0
- body weights D 9 ([3]; D 9): 25.2 ± 1.1
- body weights D 12 ([3]; D 12): 25.3 ± 1.0
- body weights D 14 ([3]; D 14): 25.1 ± 1.0
- AUC(0-inf) ([4]; mouse, IV 2 mg/kg, read-out: AUC0-∞): 563 ng·h/mL
- clearance ([4]; mouse, IV 2 mg/kg, read-out: CL (converted)): 59.2 mL/min/kg
- half-life ([4]; mouse, IV 2 mg/kg, read-out: T1/2 (converted)): 1.79 h
- bioavailability ([4]; mouse, PO 5 mg/kg vs IV 2 mg/kg, read-out: F % (bioavailability)): 67.8%
- AUC(0-inf) ([4]; mouse, PO 5 mg/kg, read-out: AUC0-∞): 982 ng·h/mL
- Vd ([4]; mouse, IV 2 mg/kg, read-out: Vz): 9.18 L/kg
- Cmax ([4]; mouse, PO 5 mg/kg, read-out: Cmax): 211 ng/mL
- Tmax ([4]; mouse, PO 5 mg/kg, read-out: Tmax): 1 h
- Relative tumor proliferation rate T/C (%) (tumor in naked mice; 8 mg/kg intragastric): 4.9%
- Tumor inhibition rate (%) (tumor in naked mice; 8 mg/kg intragastric): 93.8%
- Tumor weights (tumor in naked mice; 8 mg/kg intragastric): 0.041 ± 0.021
- half-life ([1]; SD, rat): 0.345 h
- K ([1]; rat liver microsomes, 37° C.): 0.0134 min⁻¹

SMILES: [2H]C([2H])([2H])[C@@]([2H])(c1cccc(-c2ncc(OCC3CCN(C)CC3)cn2)c1)n1nc(-c2cccc(C#N)c2)ccc1=O [Compound 15]
- IC50 [2, 5]: 1.12 µM

SMILES: C[C@@H](c1cccc(-c2ncc([Se]CCCN(C)C)cn2)c1)n1nc(-c2cccc(C#N)c2)ccc1=O [Compound 12]
- IC50 [2, 5]: 0.415 µM

SMILES: [2H][C@@](C)(c1cccc(-c2ncc(OCC3CCN(C)CC3)cn2)c1)n1nc(-c2cccc(C#N)c2)ccc1=O [Compound 1]
- IC50 [2, 6]: 0.0033 µM

SMILES: CC(c1cccc(-c2ncc(OCC3CCN(C)CC3)cn2)c1)n1nc(-c2cccc(C#N)c2)ccc1=O (centres unmarked) [Compound 4]
- IC50 [2, 5]: 0.0353 µM

SMILES: CC(c1cccc(-c2ncc([Se]CCCN(C)C)cn2)c1)n1nc(-c2cccc(C#N)c2)ccc1=O (centres unmarked) [Compound 10]
- IC50 [2, 5]: 0.027 µM

SMILES: [2H]C([2H])([2H])[C@]([2H])(c1cccc(-c2ncc(OCC3CCN(C)CC3)cn2)c1)n1nc(-c2cccc(C#N)c2)ccc1=O [(R)-14]
- AUC(0-inf) ([4]; iv, 2 mg/kg): 2440 ng·h/mL
- clearance ([4]; iv, 2 mg/kg): 13.7 mL/min/kg
- half-life ([4]; iv, 2 mg/kg): 4.48 h
- AUC(0-inf) ([4]; po, 5 mg/kg): 6310 ng·h/mL
- bioavailability ([4]; po, 5 mg/kg): 104%
- Vd ([4]; iv, 2 mg/kg): 5.29 L/kg
- Cmax ([4]; po, 5 mg/kg): 614 ng/mL
- Tmax ([4]; po, 5 mg/kg): 4 h
- Relative tumor proliferation rate T/C (%) (tumor in naked mice; 4 mg/kg intragastric): 2.28%
- Tumor inhibition rate (%) (tumor in naked mice; 4 mg/kg intragastric): 98.0%
- Tumor weights (tumor in naked mice; 4 mg/kg intragastric): 0.013 ± 0.015
- Relative tumor proliferation rate T/C (%) (tumor in naked mice; 8 mg/kg intragastric): 1.59%
- Tumor inhibition rate (%) (tumor in naked mice; 8 mg/kg intragastric): 98.2%
- Tumor weights (tumor in naked mice; 8 mg/kg intragastric): 0.012 ± 0.006
- K ([1]; SD, rat): 0.0198 min⁻¹
- half-life ([1]; SD, rat): 0.583 h

SMILES: C[C@H](c1cccc(-c2ncc(SCCCN(C)C)cn2)c1)n1nc(-c2cccc(C#N)c2)ccc1=O [Compound 8]
- IC50 [2, 5]: 0.0139 µM

SMILES: CN1CCC(COc2cnc(-c3cccc(Cn4nc(-c5cccc(C#N)c5)ccc4=O)c3)nc2)CC1 [Compound 3]
- IC50 [2, 6]: 0.0134 µM

SMILES: C[C@H](c1cccc(-c2ncc(OCC3CCN(C)CC3)cn2)c1)n1nc(-c2cccc(C#N)c2)ccc1=O [(R)-5b]
- IC50 [2, 5]: 0.0037 µM
- activity for inhibiting tumor cells, times that of (S)-5b ([2]; MHCC-97H, relative to (S)-5b): 31.9 times
- activity for inhibiting tumor cells, times that of (±)-5b ([2]; MHCC-97H, relative to (±)-5b): 9.5 times
- AUC(0-inf) ([4]; iv, 2 mg/kg): 2140 ng·h/mL
- clearance ([4]; iv, 2 mg/kg): 15.5 mL/min/kg
- half-life ([4]; iv, 2 mg/kg): 4.23 h
- AUC(0-inf) ([4]; po, 5 mg/kg): 4580 ng·h/mL
- bioavailability ([4]; po, 5 mg/kg): 86%
- Vd ([4]; iv, 2 mg/kg): 5.69 L/kg
- Cmax ([4]; po, 5 mg/kg): 495 ng/mL
- Tmax ([4]; po, 5 mg/kg): 2 h
- K ([1]; SD, rat): 0.0259 min⁻¹
- half-life ([1]; SD, rat): 0.447 h

SMILES: CN1CCC(COc2cnc(-c3cccc(Cn4nc(-c5cccc(C#N)c5)ccc4=O)c3)nc2)CC1 [Compound 16]
- IC50 [2, 5]: 0.0134 µM
